pIC50: −log10 of the molar value. Structures can show the parent of a compound that is named as a salt.
Molecular target: rat TRPV1 (Rattus norvegicus (Rat), UniProt O35433)
Details: read-out: Rat IC50

Sequence of rat TRPV1 (O35433 whole entry): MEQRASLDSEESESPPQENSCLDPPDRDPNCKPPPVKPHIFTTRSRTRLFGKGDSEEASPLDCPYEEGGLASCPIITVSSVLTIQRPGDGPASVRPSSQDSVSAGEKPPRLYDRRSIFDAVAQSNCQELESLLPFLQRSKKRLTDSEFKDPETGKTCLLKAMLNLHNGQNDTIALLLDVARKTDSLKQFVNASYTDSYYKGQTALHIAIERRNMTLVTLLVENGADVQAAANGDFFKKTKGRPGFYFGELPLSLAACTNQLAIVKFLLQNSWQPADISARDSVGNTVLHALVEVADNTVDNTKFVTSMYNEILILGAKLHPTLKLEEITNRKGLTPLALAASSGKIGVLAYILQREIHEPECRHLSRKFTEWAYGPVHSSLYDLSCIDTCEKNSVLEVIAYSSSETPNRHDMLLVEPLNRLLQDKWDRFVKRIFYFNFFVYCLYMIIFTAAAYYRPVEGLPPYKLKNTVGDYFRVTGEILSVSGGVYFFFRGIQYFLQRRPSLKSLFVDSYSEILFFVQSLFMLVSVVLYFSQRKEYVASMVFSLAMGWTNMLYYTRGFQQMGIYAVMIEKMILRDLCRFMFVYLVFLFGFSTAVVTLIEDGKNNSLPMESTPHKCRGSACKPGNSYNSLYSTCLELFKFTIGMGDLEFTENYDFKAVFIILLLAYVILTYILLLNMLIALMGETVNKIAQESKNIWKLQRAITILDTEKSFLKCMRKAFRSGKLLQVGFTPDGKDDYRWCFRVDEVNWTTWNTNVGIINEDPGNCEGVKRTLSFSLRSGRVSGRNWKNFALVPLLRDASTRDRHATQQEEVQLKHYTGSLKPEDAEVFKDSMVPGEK

Going from `COC[C@@H]1CCCN1c1nc2c(c(Nc3ccc(C(F)(F)F)cc3)n1)CCN(c1ncccc1C(F)(F)F)CC2` [Example 215, 2-{(2S)-2-[(Methyloxy)methyl]pyrrolidin-1-yl}-N-[4-(trifluoromethyl)phenyl]-7-[3-(trifluoromethyl)pyridin-2-yl]-6,7,8,9-tetrahydro-5H-pyrimido[4,5-d]azepin-4-amine trifluoroacetic acid salt] to `FC(F)(F)c1ccc(Nc2nc(N3CCC3)nc3c2CCN(c2ncccc2C(F)(F)F)CC3)cc1` [Example 56B, [2-Azetidin-1-yl-7-(3-trifluoromethyl-pyridin-2-yl)-6,7,8,9-tetrahydro-5H-pyrimido[4,5-d]azepin-4-yl]-(4-trifluoromethyl-phenyl)-amine trifluoroacetic acid salt], the pIC50 falls from 8.00 to 7.19 (0.81 log units). The first is the more potent here.

First: FC(F)(F)c1ccc(Nc2nc(-c3ccsc3)nc3c2CCN(c2ncccc2C(F)(F)F)CC3)cc1 [Example 150, 2-(3-Thienyl)-N-[4-(trifluoromethyl)phenyl]-7-[3-(trifluoromethyl)pyridin-2-yl]-6,7,8,9-tetrahydro-5H-pyrimido[4,5-d]azepin-4-amine]
Second: FC(F)(F)c1ccc(Nc2nc(-c3ccncc3)nc3c2CCN(c2ncccc2C(F)(F)F)CC3)nc1 [Example 190, 2-Pyridin-4-yl-7-[3-(trifluoromethyl)pyridin-2-yl]-N-[5-(trifluoromethyl)pyridin-2-yl]-6,7,8,9-tetrahydro-5H-pyrimido[4,5-d]azepin-4-amine trifluoroacetic acid salt]
The pIC50 of the first is 0.76 log units higher: 6.70 for the first, 5.94 for the second. The first is the more potent here.

Going from `CN1CCC(C)(C)c2ccc(Nc3nc(N4CCCCC4)nc4c3CCN(c3ncccc3C(F)(F)F)CC4)cc21` [Example 164, [2-Piperidin-1-yl-7-(3-trifluoromethyl-pyridin-2-yl)-6,7,8,9-tetrahydro-5H-pyrimido[4,5-d]azepin-4-yl]-(1,4,4-trimethyl-1,2,3,4-tetrahydro-quinolin-7-yl)-amine hydrochloride salt] to `CC(C)(C)c1ccc(Nc2nc(N3CCCCC3)nc3c2CCN(c2ncccc2C(F)(F)F)CC3)cc1` [Example 42, (4-tert-Butyl-phenyl)-[2-piperidin-1-yl-7-(3-trifluoromethyl-pyridin-2-yl)-6,7,8,9-tetrahydro-5H-pyrimido[4,5-d]azepin-4-yl]-amine], the pIC50 falls from 7.70 to 7.31 (0.39 log units). The first is the more potent here.

First: CSc1ccc(Nc2nc(N3CCCCC3)nc3c2CCN(c2ncccc2C(F)(F)F)CC3)cc1 [Example 160, N-[4-(Methylsulfanyl)phenyl]-2-piperidin-1-yl-7-[3-(trifluoromethyl)pyridin-2-yl]-6,7,8,9-tetrahydro-5H-pyrimido[4,5-d]azepin-4-amine]
Second: CC(C)(CO)c1ccc(Nc2nc(N3CCCCC3)nc3c2CCN(c2ncccc2C(F)(F)F)CC3)cc1 [Example 383, 2-Methyl-2-{4-[2-piperidin-1-yl-7-(3-trifluoromethyl-pyridin-2-yl)-6,7,8,9-tetrahydro-5H-pyrimido[4,5-d]azepin-4-ylamino]-phenyl}-propan-1-ol]
The pIC50 of the first is 0.20 log units higher: 7.00 for the first, 6.80 for the second.

Going from `FC(F)(F)c1ccc(Nc2nc(N3CCOCC3)nc3c2CCN(c2ncccc2C(F)(F)F)CC3)nc1` [Example 41, [2-Morpholin-4-yl-7-(3-trifluoromethyl-pyridin-2-yl)-6,7,8,9-tetrahydro-5H-pyrimido[4,5-d]azepin-4-yl]-(5-trifluoromethyl-pyridin-2-yl)-amine] to `FC(F)(F)c1ccc(Nc2nc(N3CCCCC3)nc3c2CCN(c2ncccc2C(F)(F)F)CC3)nc1` [Example 250, 2-Piperidin-1-yl-7-[3-(trifluoromethyl)pyridin-2-yl]-N-[5-(trifluoromethyl)pyridin-2-yl]-6,7,8,9-tetrahydro-5H-pyrimido[4,5-d]azepin-4-amine], the pIC50 falls from 7.31 to 7.05 (0.26 log units). The first is the more potent here.

`CN(C)c1nc2c(c(Nc3ccc(C(C)(C)C#N)cc3)n1)CCN(c1ncccc1C(F)(F)F)CC2` [Example 65B, 2-{4-[2-Dimethylamino-7-(3-trifluoromethyl-pyridin-2-yl)-6,7,8,9-tetrahydro-5H-pyrimido[4,5-d]azepin-4-ylamino]-phenyl}-2-methyl-propionitrile trifluoroacetic acid salt] and `CC(C)(C)c1ccc(Nc2nc(S(C)(=O)=O)nc3c2CCN(c2ncccc2C(F)(F)F)CC3)cc1` [Example 207, N-[4-(1,1-Dimethylethyl)phenyl]-2-(methylsulfonyl)-7-[3-(trifluoromethyl)pyridin-2-yl]-6,7,8,9-tetrahydro-5H-pyrimido[4,5-d]azepin-4-amine] are within 0.2 log units of each other in pIC50: 6.19 for the first, 6.11 for the second.

Going from `FC(F)(F)c1ccc(Nc2nc(OC3CCCCCC3)nc3c2CCN(c2ncccc2C(F)(F)F)CC3)cc1` [Example 336, 2-(Cycloheptyloxy)-N-[4-(trifluoromethyl)phenyl]-7-[3-(trifluoromethyl)pyridin-2-yl]-6,7,8,9-tetrahydro-5H-pyrimido[4,5-d]azepin-4-amine] to `O[C@@H]1CCCN(c2nc3c(c(Nc4ccc(C(F)(F)F)cc4)n2)CCN(c2ncccc2C(F)(F)F)CC3)C1` [Example 91B, (R)-1-[4-(4-Trifluoromethyl-phenylamino)-7-(3-trifluoromethyl-pyridin-2-yl)-6,7,8,9-tetrahydro-5H-pyrimido[4,5-d]azepin-2-yl]-piperidin-3-ol trifluoroacetic acid salt], the pIC50 rises from 5.79 to 6.62 (0.83 log units). The second is the more potent here.

First: O=S(=O)(c1ccc(Nc2nc(OC3CCOC3)nc3c2CCN(c2ncccc2C(F)(F)F)CC3)cc1)C(F)(F)F (stereo not shown) [Example 331, 2-(Tetrahydrofuran-3-yloxy)-7-[3-(trifluoromethyl)pyridin-2-yl]-N-{4-[(trifluoromethyl)sulfonyl]phenyl}-6,7,8,9-tetrahydro-5H-pyrimido[4,5-d]azepin-4-amine]
Second: CC(C)Sc1nc2c(c(Nc3ccc(S(=O)(=O)C(F)(F)F)cc3)n1)CCN(c1ncccc1C(F)(F)F)CC2 [Example 361, 2-[(1-Methylethyl)sulfanyl]-7-[3-(trifluoromethyl)pyridin-2-yl]-N-{4-[(trifluoromethyl)sulfonyl]phenyl}-6,7,8,9-tetrahydro-5H-pyrimido[4,5-d]azepin-4-amine]
The pIC50 of the first is 0.48 log units higher: 6.30 for the first, 5.82 for the second.

`COCCN(C)c1nc2c(c(Nc3ccc(C(F)(F)F)cc3)n1)CCN(c1ncccc1C(F)(F)F)CC2` [Example 93B, N^2-(2-Methoxy-ethyl)-N^2-methyl-N^4-(4-trifluoromethyl-phenyl)-7-(3-trifluoromethyl-pyridin-2-yl)-6,7,8,9-tetrahydro-5H-pyrimido[4,5-d]azepine-2,4-diamine trifluoroacetic acid salt] and `COCCN(C)c1nc2c(c(Nc3ccc(C(F)(F)F)nc3)n1)CCN(c1ncccc1C(F)(F)F)CC2` [Example 228, N^2-Methyl-N^2-[2-(methyloxy)ethyl]-7-[3-(trifluoromethyl)pyridin-2-yl]-N^4-[6-(trifluoromethyl)pyridin-3-yl]-6,7,8,9-tetrahydro-5H-pyrimido[4,5-d]azepine-2,4-diamine trifluoroacetic acid salt] are within 0.2 log units of each other in pIC50: 7.43 for the first, 7.40 for the second.

First: CC(C)c1nc2c(c(Nc3ccc(-c4cnco4)cc3)n1)CCN(c1ncccc1C(F)(F)F)CC2 [Example 142, 2-(1-Methylethyl)-N-[4-(1,3-oxazol-5-yl)phenyl]-7-[3-(trifluoromethyl)pyridin-2-yl]-6,7,8,9-tetrahydro-5H-pyrimido[4,5-d]azepin-4-amine]
Second: CC(C)c1nc2c(c(Nc3ccc(C(=O)N(C)C)cc3)n1)CCN(c1ncccc1C(F)(F)F)CC2 [Example 127, N,N-Dimethyl-4-({2-(1-methylethyl)-7-[3-(trifluoromethyl)pyridin-2-yl]-6,7,8,9-tetrahydro-5H-pyrimido[4,5-d]azepin-4-yl}amino)benzamide]
The pIC50 of the first is 0.96 log units higher: 5.68 for the first, 4.72 for the second. The first is the more potent here.

First: Cc1nc2c(c(Nc3ccc(C(F)(F)F)cn3)n1)CCN(c1ncccc1C(F)(F)F)CC2 [Example 69, [2-Methyl-7-(3-trifluoromethyl-pyridin-2-yl)-6,7,8,9-tetrahydro-5H-pyrimido[4,5-d]azepin-4-yl]-(5-trifluoromethyl-pyridin-2-yl)-amine]
Second: CC(C)c1nc2c(c(Nc3cccc(C(F)(F)F)c3)n1)CCN(c1ncccc1C(F)(F)F)CC2 [Example 10, [2-Isopropyl-7-(3-trifluoromethyl-pyridin-2-yl)-6,7,8,9-tetrahydro-5H-pyrimido[4,5-d]azepin-4-yl]-(3-trifluoromethyl-phenyl)-amine]
The pIC50 of the first is 0.27 log units higher: 6.30 for the first, 6.03 for the second.

First: CC(C)Sc1nc2c(c(Nc3ccc(C(F)(F)F)cc3)n1)CCN(c1ncccc1C(F)(F)F)CC2 [Example 355, 2-[(1-Methylethyl)sulfanyl]-N-[4-(trifluoromethyl)phenyl]-7-[3-(trifluoromethyl)pyridin-2-yl]-6,7,8,9-tetrahydro-5H-pyrimido[4,5-d]azepin-4-amine]
Second: CC(C)(C)c1ccc(Nc2nc(-c3ccccc3)nc3c2CCN(c2ncccc2C(F)(F)F)CC3)cc1 [Example 6, (4-tert-Butyl-phenyl)-[2-phenyl-7-(3-trifluoromethyl-pyridin-2-yl)-6,7,8,9-tetrahydro-5H-pyrimido[4,5-d]azepin-4-yl]-amine]
The pIC50 of the first is 0.91 log units higher: 7.22 for the first, 6.31 for the second. The first is the more potent here.

First: FC(F)(F)c1ccc(Nc2nc(N3CCN(Cc4ccccc4)CC3)nc3c2CCN(c2ncccc2C(F)(F)F)CC3)cc1 [Example 102, [2-(4-Benzyl-piperazin-1-yl)-7-(3-trifluoromethyl-pyridin-2-yl)-6,7,8,9-tetrahydro-5H-pyrimido[4,5-d]azepin-4-yl]-(4-trifluoromethyl-phenyl)-amine]
Second: CN1CCN(c2nc3c(c(Nc4ccc(C(F)(F)F)nc4)n2)CCN(c2ncccc2C(F)(F)F)CC3)CC1 [Example 220, 2-(4-Methylpiperazin-1-yl)-7-[3-(trifluoromethyl)pyridin-2-yl]-N-[6-(trifluoromethyl)pyridin-3-yl]-6,7,8,9-tetrahydro-5H-pyrimido[4,5-d]azepin-4-amine]
The pIC50 of the first is 0.95 log units higher: 6.77 for the first, 5.82 for the second. The first is the more potent here.

Compared with `Cc1cc(N)cnc1N1CCc2nc(C(C)C)nc(Nc3ccc(C(F)(F)F)cc3)c2CC1` [Example 83, [7-(5-Amino-3-methyl-pyridin-2-yl)-2-isopropyl-6,7,8,9-tetrahydro-5H-pyrimido[4,5-d]azepin-4-yl]-(4-trifluoromethyl-phenyl)-amine], `FC(F)(F)c1cnc(Nc2nc(N3CCCCC3)nc3c2CCN(c2ncccc2C(F)(F)F)CC3)cn1` [Example 192, [2-Piperidin-1-yl-7-(3-trifluoromethyl-pyridin-2-yl)-6,7,8,9-tetrahydro-5H-pyrimido[4,5-d]azepin-4-yl]-(5-trifluoromethyl-pyrazin-2-yl)-amine] is 1.15 log units higher in pIC50: 6.00 for the first, 7.15 for the second.

— patent US9422293B2 (priority 2006, dated 2016)
